Numbered stars: 1 amine (or outer) side, 2 acyl side, 3 side chain; on linkers, the order of the positions; unused ones are H or OH. Square brackets hold non-standard residues; d marks the D form. Side chains are listed from the residue outwards. Peptide text beside a SMILES is read from it. * marks the point of attachment. Pro(trans-4-cHex) = O=C(O)[C@@H]1C[C@@H](C2CCCCC2)CN1; X1 = O=C([C@@H]1C[C@@H](Cc2ccc(Br)cc2)CN1[*:1])[*:2]; Pro(cis-4-Ph) = O=C(O)[C@@H]1C[C@H](c2ccccc2)CN1; Phe(4-CF3) = N[C@@H](Cc1ccc(C(F)(F)F)cc1)C(=O)O; Pro(4R-Bn) = O=C(O)[C@@H]1C[C@@H](Cc2ccccc2)CN1; Trp(5-OH) = N[C@@H](Cc1c[nH]c2ccc(O)cc12)C(=O)O; X7 = O=C([C@H](CCNCc1c[nH]cn1)N[*:1])[*:2]; Oic = O=C(O)[C@@H]1C[C@@H]2CCCC[C@@H]2N1; Phe(4-CN) = N#Cc1ccc(C[C@H](N)C(=O)O)cc1; Hyp = O=C(O)[C@@H]1C[C@@H](O)CN1; Tic = O=C(O)[C@@H]1Cc2ccccc2CN1; MeOCH2CH2OCH2CO = COCCOCC(=O)*; N(Me)CH2CH2OMe = COCCN(C)*; dPip = O=C(O)[C@H]1CCCCN1; Thz = O=C(O)[C@@H]1CSCN1; Ac5c = NC1(C(=O)O)CCCC1; Dab = NCC[C@H](N)C(=O)O; X14 = N#Cc1cccc(C*)c1; X8 = Cn1cncc1CCC(=O)*; Aib = CC(C)(N)C(=O)O; CO = O=C([*:1])[*:2]; NHPh = c1ccc(N*)cc1; Bn = c1ccc(C*)cc1; Ms = CS(=O)(=O)*
Assays:
[1] = molecular target: T1, human CCR10 (Homo sapiens, UniProt P46092); test: Calcium flux assay (CCR10 antagonism, CCL27 as agonist); type: cell-based; settings: CCR10 transfected 300-19 murine pre-B cells; CCL27 30 nM
T1 construct: expressed in transfected cells
T1 sequence (P46092 1-362): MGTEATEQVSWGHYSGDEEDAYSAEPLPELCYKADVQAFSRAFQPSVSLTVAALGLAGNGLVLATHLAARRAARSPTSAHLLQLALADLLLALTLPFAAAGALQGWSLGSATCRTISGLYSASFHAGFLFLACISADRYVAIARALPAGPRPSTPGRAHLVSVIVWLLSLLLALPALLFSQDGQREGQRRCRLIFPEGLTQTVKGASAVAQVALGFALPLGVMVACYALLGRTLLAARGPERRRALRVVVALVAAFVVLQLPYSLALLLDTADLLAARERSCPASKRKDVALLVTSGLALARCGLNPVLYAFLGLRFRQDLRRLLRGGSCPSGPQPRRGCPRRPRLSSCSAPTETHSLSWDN
Method: (§1) Lyophilized peptides were weighed on a Microbalance (Mettler MX5) and dissolved in aqueous 90% DMSO to a final concentration of 10 mM unless otherwise stated. Stock solutions were kept at +4° C., and protected from light.
(§2) Peptides were assayed for CCR10 antagonism in a calcium flux assay and in a chemotaxis assay using a mouse pre-B cell line 300-19 stably transfected with human CCR10, and with human CCL27 as agonist.
The calcium flux release was assessed using CCR10 transfected 300-19 murine pre-B cells. These cells were labeled as a batch with Calcium4 Reagent (Molecular Devices, Sunnyvale, Calif.) in HBSS buffer for 60 min.
After dispensing 8×10^4 cells in each well of a 384-well black plate, a concentrated solution of the β-hairpin peptidomimetics of this invention in HBSS+0.1% BSA+0.1% DMSO (final concentration) was added to the cells. The entire plate was centrifuged and placed in a Flexstation II (Molecular Devices) automated plate reader. After reading a 20 s baseline, the Flexstation dispensed CCL27 (RnD systems) at a final concentration of 30 nM in HBSS+0.1% BSA onto the cells and calcium flux was measured for an additional 70 s.
Alternatively a FIipR384 (Molecular Devices) was used for read out of the 384-well plates. In this case about 8×10^4 cells were placed in each well, centrifuged, placed in the FlipR and after 5 s of baseline reading, the β-hairpin peptidomimetics in HBSS+0.1% BSA+0.1% DMSO (final concentration) were added. After an incubation time of 5 min, the CCL27 solution was added to the mixture and the calcium flux was measured for 200 s.
The maximum signal was determined from control wells without inhibitor. Percentage of inhibition was calculated from a range of compound concentrations, which were subsequently used to calculate IC50 values (Softmax Pro, Molecular Devices). All steps were carried out at room temperature.

[2] = molecular target: T1, human CCR10; test: Chemotaxis assay (CCR10-transfected 300-19 cells, CCL27 gradient); type: cell-based; settings: CCR10-transfected 300-19 murine pre-B cells; 30 nM CCL27 gradient
Method: as §1, §2
The chemotactic response of CCR10-transfected 300-19 murine pre-B cells to a gradient of CCL27 (CTACK) was measured using disposable Transwell® assay plates from Costar (5 μm pore size) according to the protocol of the manufacturer. Briefly, cells were grown under sterile conditions at 37° C. with 5% CO2 in flasks containing RPMI+5% FCS, glutamine, penicillin/streptomycin (all media components were from Life Technologies) and the appropriate selection antibiotics (Puromycin, G418 or Tetracycline). For the assay, cells were pelleted by centrifugation, washed once in Dulbecco's phosphate buffered saline (DPBS), and resuspended to give 1×10^6 cells/ml in RPMI+0.5% bovine serum albumin (BSA). 100 μl of cell suspension was applied to the top of the assay filter. The β-hairpin peptidomimetics, diluted in the same assay medium, were added to both top and bottom chambers. The cells were allowed to migrate for 4-6 hours at 37° C. into the bottom chamber of the assay plate containing 30 nM of CCL27 (RnD systems). Migrated cells were counted using a FACS cytometer (Cytomics FC500, Beckman Coulter). Data normalization was performed using the number of any cells that had migrated in the absence of the β-hairpin peptidomimetic and the number of cells that have randomly migrated in absence of CCL27 [these values were taken as 100% (no inhibitory activity) and 0%, respectively]. From a range of compound concentrations IC50 were determined using Prism5 (GraphPad software).

SMILES	IC50 [1]	IC50 [2]
NCC[C@@H]1NC(=O)[C@H](Cc2c[nH]c3ccccc23)NC(=O)C2(CCCC2)NC(=O)[C@H](Cc2c[nH]c3ccccc23)NC(=O)[C@@H]2C[C@@H](Cc3ccccc3)CN2C(=O)[C@H]2CCCN2C1=O [Ex. 38, cyclo(-Trp-Cyp-Trp-Dab-^DPro-Pro((4R)Bn)-)] (cyclo([Ac5c]W[Dab][dP][Pro(4R-Bn)]W))	26.1 ± 8.1 nM	2.3 nM
CC1(C)NC(=O)[C@H](Cc2c[nH]c3ccccc23)NC(=O)[C@@H]2Cc3ccccc3CN2C(=O)[C@H]2CCCN2C(=O)[C@H](CCCNC(=N)N)NC(=O)[C@H](Cc2c[nH]c3ccccc23)NC1=O [Ex. 1, cyclo(-Trp-Aib-Trp-Arg-^DPro-Tic-)] (cyclo([Aib]WR[dP][Tic]W))	226 ± 187 nM	94 nM
COCCOCC(=O)NCC[C@@H]1NC(=O)[C@H](Cc2c[nH]c3ccccc23)NC(=O)C2(CCCC2)NC(=O)[C@H](Cc2c[nH]c3ccccc23)NC(=O)[C@@H]2C[C@@H]3CCCC[C@@H]3N2C(=O)[C@H]2CCCN2C1=O [Ex. 72, cyclo(-Trp-Cyp-Trp-Dab(MEMCO)-^DPro-Oic-)] (cyclo([Ac5c]W[Dab](MeOCH2CH2OCH2CO)[dP][Oic]W))	62.8 ± 41.6 nM	11.5 nM
NCC[C@@H]1NC(=O)[C@H](Cc2c[nH]c3ccccc23)NC(=O)C2(CCCC2)NC(=O)[C@H](Cc2c[nH]c3ccccc23)NC(=O)[C@@H]2C[C@@H](OC(=O)Nc3ccccc3)CN2C(=O)[C@H]2CCCN2C1=O [compound 57, cyclo(-Trp-Cyp-Trp-Dab-^DPro-Hyp(CONHPh)-)] (cyclo([Ac5c]W[Dab][dP][Hyp]([CO-NHPh])W))	150 ± 110 nM	183 nM
NCC[C@H](N)C(=O)NCC[C@@H]1NC(=O)[C@H](Cc2c[nH]c3ccccc23)NC(=O)C2(CCCC2)NC(=O)[C@H](Cc2c[nH]c3ccccc23)NC(=O)[C@@H]2C[C@@H]3CCCC[C@@H]3N2C(=O)[C@H]2CCCN2C1=O [Ex. 71, cyclo(-Trp-Cyp-Trp-Dab(Dab)-^DPro-Oic-)] (cyclo([Ac5c]W[Dab](Dab)[dP][Oic]W))	567 ± 155 nM	50.2 nM
COCCN(C)C(=O)NCC[C@@H]1NC(=O)[C@H](Cc2c[nH]c3ccccc23)NC(=O)C2(CCCC2)NC(=O)[C@H](Cc2c[nH]c3ccccc23)NC(=O)[C@@H]2C[C@@H]3CCCC[C@@H]3N2C(=O)[C@H]2CCCN2C1=O [Ex. 97, cyclo(-Trp-Cyp-Trp-Dab((MeO(CH2)2)(Me)NCO)-^DPro-Oic-)] (cyclo([Ac5c]W[Dab]([CO-N(Me)CH2CH2OMe])[dP][Oic]W))	8.1 ± 9.1 nM	5.6 nM
N#Cc1ccc(C[C@@H]2NC(=O)[C@@H]3C[C@@H](OCc4ccccc4)CN3C(=O)[C@H]3CCCN3C(=O)[C@H](CCN)NC(=O)[C@H](Cc3c[nH]c4ccccc34)NC(=O)C3(CCCC3)NC2=O)cc1 [compound 49, cyclo(-Phe(4CN)-Cyp-Trp-Dab-^DPro-Hyp(Bn)-)] (cyclo([Ac5c]W[Dab][dP][Hyp](Bn)[Phe(4-CN)]))	181 ± 110 nM	5.3 nM
NCC[C@@H]1NC(=O)[C@H](Cc2c[nH]c3ccccc23)NC(=O)C2(CCCC2)NC(=O)[C@H](Cc2c[nH]c3ccccc23)NC(=O)[C@@H]2C[C@@H](Cc3ccc(Br)cc3)CN2C(=O)[C@H]2CCCN2C1=O [compound 39, cyclo(-Trp-Cyp-Trp-Dab-^DPro-Pro((4R)4BrBn)-)] (cyclo([Ac5c]W[Dab][dP][X1]W))	15.8 ± 10.3 nM	9 nM
NCC[C@@H]1NC(=O)[C@H](Cc2c[nH]c3ccccc23)NC(=O)C2(CCCC2)NC(=O)[C@H](Cc2c[nH]c3ccccc23)NC(=O)[C@@H]2C[C@@H](C3CCCCC3)CN2C(=O)[C@H]2CCCN2C1=O [compound 41, cyclo(-Trp-Cyp-Trp-Dab-^DPro-Pro((4S)cHex)-)] (cyclo([Ac5c]W[Dab][dP][Pro(trans-4-cHex)]W))	54.3 ± 22 nM	140 nM
N#Cc1ccc(C[C@@H]2NC(=O)[C@@H]3C[C@@H](OCc4ccccc4)CN3C(=O)[C@H]3CCCCN3C(=O)[C@H](CO)NC(=O)[C@H](Cc3c[nH]c4ccccc34)NC(=O)C3(CCCC3)NC2=O)cc1 [compound 50, cyclo(-Phe(4CN)-Cyp-Trp-Ser-^DPip-Hyp(Bn)-)] (cyclo([Ac5c]WS[dPip][Hyp](Bn)[Phe(4-CN)]))	0.5 ± 0.2 nM	1.8 nM
NCC[C@@H]1NC(=O)[C@H](Cc2c[nH]c3ccccc23)NC(=O)C2(CCCC2)NC(=O)[C@H](Cc2c[nH]c3ccccc23)NC(=O)[C@@H]2C[C@@H](OCc3ccccc3)CN2C(=O)[C@H]2CCCN2C1=O [compound 45, cyclo(-Trp-Cyp-Trp-Dab-^DPro-Hyp(Bn)-)] (cyclo([Ac5c]W[Dab][dP][Hyp](Bn)W))	65.8 ± 19.6 nM	14 nM
O=C1NC2(CCCC2)C(=O)N[C@@H](Cc2c[nH]c3ccccc23)C(=O)N[C@@H](CCNCc2c[nH]cn2)C(=O)N2CCC[C@@H]2C(=O)N2[C@@H](C[C@@H]3CCCC[C@@H]32)C(=O)N[C@H]1Cc1c[nH]c2ccccc12 [Ex. 106, cyclo(-Trp-Cyp-Trp-Dab(A55)-^DPro-Oic-)] (cyclo([Ac5c]W[X7][dP][Oic]W))	12.2 ± 3.8 nM	4.8 nM
CS(=O)(=O)NCC[C@@H]1NC(=O)[C@H](Cc2c[nH]c3ccccc23)NC(=O)C2(CCCC2)NC(=O)[C@H](Cc2c[nH]c3ccccc23)NC(=O)[C@@H]2C[C@@H]3CCCC[C@@H]3N2C(=O)[C@H]2CCCN2C1=O [Ex. 100, cyclo(-Trp-Cyp-Trp-Dab(MeSO2)-^DPro-Oic-)] (cyclo([Ac5c]W[Dab](Ms)[dP][Oic]W))	0.2 ± 0.1 nM	3.4 nM
Cn1cncc1CCC(=O)NCC[C@@H]1NC(=O)[C@H](Cc2c[nH]c3ccccc23)NC(=O)C2(CCCC2)NC(=O)[C@H](Cc2ccc(C(F)(F)F)cc2)NC(=O)[C@@H]2C[C@@H]3CCCC[C@@H]3N2C(=O)[C@H]2CCCN2C1=O [Ex. 108, cyclo(-Phe(4CF3)-Cyp-Trp-Dab(A56)-^DPro-Oic-)] (cyclo([Ac5c]W[Dab](X8)[dP][Oic][Phe(4-CF3)]))	34.5 ± 17.3 nM	2.5 nM
N#Cc1cccc(CO[C@@H]2C[C@H]3C(=O)N[C@@H](Cc4c[nH]c5ccccc45)C(=O)NC4(CCCC4)C(=O)N[C@@H](Cc4c[nH]c5ccccc45)C(=O)N[C@@H](CCN)C(=O)N4CCC[C@@H]4C(=O)N3C2)c1 [compound 77, cyclo(-Trp-Cyp-Trp-Dab-^DPro-Hyp(3CNBn)-)] (cyclo([Ac5c]W[Dab][dP][Hyp](X14)W))	127 ± 73 nM	50.7 nM
NC(=O)CC[C@@H]1NC(=O)[C@H](Cc2c[nH]c3ccccc23)NC(=O)C2(CCCC2)NC(=O)[C@H](Cc2c[nH]c3ccc(O)cc23)NC(=O)[C@@H]2CSCN2C(=O)[C@H]2CCCN2C1=O [Ex. 7, cyclo(-Trp(5OH)-Cyp-Trp-Gln-^DPro-Thz-)] (cyclo([Trp(5-OH)][Ac5c]WQ[dP][Thz]))	144 ± 84.1 nM	3.1 nM
NCC[C@@H]1NC(=O)[C@H](Cc2c[nH]c3ccccc23)NC(=O)C2(CCCC2)NC(=O)[C@H](Cc2ccc(C(F)(F)F)cc2)NC(=O)[C@@H]2C[C@H](c3ccccc3)CN2C(=O)[C@H]2CCCCN2C1=O [Ex. 37, cyclo(-Phe(4CF3)—Cyp-Trp-Dab-^DPip-Pro((4R)Ph)-)] (cyclo([Ac5c]W[Dab][dPip][Pro(cis-4-Ph)][Phe(4-CF3)]))	14.8 ± 12 nM	22 nM

— patent US8754038B2, “Template-fixed peptidomimetics with CCR10 antagonistic activity” (priority 2009, dated 2014)
